The test system of this assay is patients with mild to moderate Alzheimer's Disease. Briefly: Phase IIa trial: ADAS-Cog. It is filed as in vivo, human. The conditions noted are these: ITT. As for the experimental part: Exploratory outcome evaluations involved the assessment of cognitive and clinical function (Table 4). […] Items from the Neurological Testing Battery (NTB), together with the ADAS-Cog 13, Spatial Navigation Test (AMUNET) were performed at Baseline, Week 12 and Week 26 (Visits 2, 4 and 5). While the MMSE was used primarily as a screening and baseline disease staging tool, its repeated administration at Week 26 provided an additional exploratory cognitive outcome measure. The Geriatric Depression Scale (GDS) was assessed at each Visit (Screening, Baseline, Week 4, 12, 26: Visits 1-5) and the Clinical Global Impression test (CGI) with Severity was assessed at Screening (Visit 1) and then the Improvement was subsequently assessed at Weeks 12 and 26 (Visits 4 and 5). For each test, whether categorical or numeric, all raw scores were considered interval in nature. The change from Screening (Week −8) or Baseline (Week 0) was therefore be derived for each patient. Actual values at each Visit and Changes from Screening/Baseline were summarized.
Alzheimer's Disease Assessment Scale-13 items (total score=85) is used as a parameter for exploratory outcome analysis. ADAS-cog is a psychometric instrument designed to evaluate the severity of cognitive and non-cognitive behavioral dysfunctions characteristic of people with AD. The cognitive portion assesses memory, language and praxis functions. Most items are rated on a scale of 0 to 5, where 0 indicates no impairment and 1 to 5 indicates very mild (1), mild (2), moderate (3), moderately severe (4) or severe impairment (5) respectively. Other items are rated on the presence or absence of a characteristic number of errors or severity of errors. The total scores from the ADAS-cog sub-scales range from 0 (no impairment) to 85 (errors in all sub-tests).
A positive (i.e., increasing) change of the score indicates cognitive worsening.
ADAS-Cog was assessed at Visits 2, 4 and 5, as well as at the early discontinuation Visit, if applicable.

Structures are written as SMILES.

Consider `CC[C@H](C)[C@H](N)C(=O)NCCN1CCOCC1` [LM11A-31-BHS, Tris[(2S,3S)-2-amino-3-methyl-N-(2-morpholinoethyl)pentanamide]tetra(monohydrogensulfate), monosulfate], for which the “progression compared to placebo in the LS mean ADAS-cog-13 score, increased by” value (200 mg group, 26-week treatment period, not statistically significant) is recorded as 7.1%. Also, where the note is “200 mg group, 26 weeks”, the “ADAS-cog-6 score progression compared to placebo, increased by” value is recorded as 7.1% and the “progression compared to placebo of the LS mean ADAS-cog-11 score, decreased by” value was determined as 9.8%. The “progression compared to placebo in the LS mean ADAS-cog-13 score, decreased by” value (400 mg group, 26-week treatment period, not statistically significant) is recorded as 35.3%. For the same compound, where the note is “400 mg group, 26 weeks”, the “ADAS-cog-6 score progression compared to placebo, decreased by” value stood at 31.4% and the “progression compared to placebo of the LS mean ADAS-cog-11 score, decreased by” value is listed as 42.7%.

The record behind these values is patent US20260137692A1, “METHODS AND COMPOSITIONS FOR TREATING AND MANAGING ALZHEIMER'S DISEASE” (PHARMATROPHIX, INC., priority 2024, published 2026).
